Assay results from article PMC6723908, “OCTN2-Mediated Acetyl-L-Carnitine Transport in Human Pulmonary Epithelial Cells In Vitro” (Pharmaceutics, 2019).

Target: T1, OCTN2 (Homo sapiens, UniProt O76082)
T1 construct: gene SLC22A5
T1 sequence (O76082 1-557): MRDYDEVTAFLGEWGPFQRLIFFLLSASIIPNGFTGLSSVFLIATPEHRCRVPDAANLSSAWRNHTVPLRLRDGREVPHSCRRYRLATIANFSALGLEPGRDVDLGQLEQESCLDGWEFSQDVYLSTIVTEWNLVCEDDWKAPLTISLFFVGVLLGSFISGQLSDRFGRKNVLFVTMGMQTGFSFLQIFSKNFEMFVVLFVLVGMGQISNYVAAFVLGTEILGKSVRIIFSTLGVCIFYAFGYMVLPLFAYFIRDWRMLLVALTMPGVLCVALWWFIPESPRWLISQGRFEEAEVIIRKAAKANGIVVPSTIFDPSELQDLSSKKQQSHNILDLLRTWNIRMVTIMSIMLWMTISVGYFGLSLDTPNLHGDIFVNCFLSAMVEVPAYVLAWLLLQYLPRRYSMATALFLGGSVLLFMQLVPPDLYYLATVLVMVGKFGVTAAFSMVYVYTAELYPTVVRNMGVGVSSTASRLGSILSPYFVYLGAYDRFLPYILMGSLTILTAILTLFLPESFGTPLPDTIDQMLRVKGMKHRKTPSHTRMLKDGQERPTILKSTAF
Assay: inhibition of [3H]-acetyl-L-carnitine uptake in ATI-like and A549 cells at […] (uptake reduced to […] in A549)
Assay type: cell-based
Conditions: read-out: % of control uptake at 500 μM

C[N+](C)(C)C[C@@H](O)CC(=O)[O-] [D-carnitine]
remaining activity at 500 µM: 25.8 ± 1.3%
